Experimental data as given in patent US5352804A, “Isolation and structure of Halistatin 2” (Arizona Board of Regents, a body corporate, acting on …, priority 1993, dated 1994).
“Also recorded” adds a separate entry of the source. Where two headings read alike, the source gives them in different places.

Tests used:
[1] = tested on: L1210 murine leukemia cells; assay: mitotic index (accumulation of cells arrested in mitosis); format: cell-based; settings: at cytotoxic concentrations
[2] = tested on: tubulin; assay: radiolabeled GTP binding to tubulin / nucleotide exchange on tubulin
Source text: (§1) For radiolabeled GTP binding to tubulin, the same drug concentrations inhibited the reaction by 17% and 51% with halistatin 2.

[3] = tested on: L1210 murine leukemia cells; assay: cytotoxicity in L1210 murine leukemia cells; format: cell-based
[4] = tested on: P388 lymphocytic leukemia; assay: P388 lymphocytic leukemia in vivo (NCI protocol); settings: 40 μg/kg host body weight, BDF mice
Protocol: When BDF, mice were treated with 40 μg/kg host body weight of halistatin 2.

[5] = tested on: NCI-H226; assay: NCI human tumor in vitro primary screen; format: cell-based
Source text: (§2) Only two hundred years ago, many diseases ravaged humankind. Many of these diseases now have been controlled or eradicated. In the development of the means to treat or control these diseases, work with the appropriate common experimental animals was of critical importance. With the various types of cancers, and with the HIV virus, such work is presently ongoing. The research for the treatment of various types of cancer is coordinated in the United States by the National Cancer Institute (NCI). NCI, as a government entity, has been charged with assisting anti-cancer research. To establish whether a substance has anti cancer activity, NCI has established a variety of protocols, one of which involves testing the candidate substance against a cell line panel containing 60 human tumor cell lines. This protocol has been verified and is generally accepted throughout the scientific community. This protocol and the established statistical means of evaluating the results obtained therefrom have been fully described in the literature. See Principles & Practice of Oncology PPO Updates, Volume 3, Number 10, Oct. 1989, by Michael R. Boyd, M.D., Ph.D., for an indepth description of the test protocol. The statistical analysis is explained in "Display and Analysis of Patterns of Differential Activity of Drugs Against Human Tumor Cell Lines: Development of Means Graph and COMPARE Algorithm" Journal of the National Cancer Institute Reports Vol. 81, No. 14, Pg. 1088, Jul. 14, 1989, by K. D. Paull et al. Both of these references are incorporated herein by this reference thereto.
(§3) Biological Testing; Data Display and Analysis; Screening Data Summary. Freshly isolated halistatin 2 was tested in the NCI's human tumor, disease-oriented in vitro primary screen, and data calculations performed. Table 3 is a composite prepared from mean graphs constructed from the averaged GI50 values from quadruplicate screenings of Halistatin 2.

[6] = tested on: HOP-62; assay: NCI human tumor in vitro primary screen; format: cell-based; settings: non-small cell lung cancer
Source text: as §2, §3

[7] = tested on: HT29; assay: NCI human tumor in vitro primary screen; format: cell-based; settings: HT-29, colon cancer
Source text: as §2, §3

[8] = tested on: SF-539; assay: NCI human tumor in vitro primary screen; format: cell-based; settings: CNS cancer
Source text: as §2, §3

[9] = tested on: KM 20L2; assay: NCI human tumor in vitro primary screen; format: cell-based
Source text: as §2, §3

[10] = tested on: UACC-62; assay: NCI human tumor in vitro primary screen; format: cell-based; settings: melanoma
Source text: as §2, §3

[11] = tested on: K-562; assay: NCI human tumor in vitro primary screen; format: cell-based; settings: K562, leukemia
Source text: as §2, §3

[12] = tested on: IGROV-1; assay: NCI human tumor in vitro primary screen; format: cell-based
Source text: as §2, §3

[13] = tested on: MALME-3M; assay: NCI human tumor in vitro primary screen; format: cell-based; settings: melanoma
Source text: as §2, §3

[14] = tested on: SW-620; assay: NCI human tumor in vitro primary screen; format: cell-based; settings: colon cancer
Source text: as §2, §3

[15] = tested on: SK-MEL-5; assay: NCI human tumor in vitro primary screen; format: cell-based; settings: melanoma
Source text: as §2, §3

[16] = tested on: UO-31; assay: NCI human tumor in vitro primary screen; format: cell-based; settings: renal cancer
Source text: as §2, §3

[17] = tested on: HOP-92; assay: NCI human tumor in vitro primary screen; format: cell-based; settings: non-small cell lung cancer
Source text: as §2, §3

[18] = tested on: M14; assay: NCI human tumor in vitro primary screen; format: cell-based; settings: melanoma
Source text: as §2, §3

[19] = tested on: SF-268; assay: NCI human tumor in vitro primary screen; format: cell-based; settings: CNS cancer
Source text: as §2, §3

[20] = tested on: HCC-2998; assay: NCI human tumor in vitro primary screen; format: cell-based; settings: colon cancer
Source text: as §2, §3

[21] = tested on: tubulin; assay: binding of radiolabeled vinblastine to tubulin
[22] = tested on: NCI-H322M; assay: cells; format: cell-based; settings: Homo sapiens
[23] = tested on: tubulin; assay: glutamate-induced polymerization of purified tubulin; format: biochemical
Protocol: Halistatin 2 was evaluated to determine if it was an antimitotic agent which interfered with the polymerization of purified tubulin and microtubule assembly dependent on microtubule-associated proteins isolated.
as §1

[24] = read-out: Log10 GI50 (converted)
[25] = read-out: Log10 TGI (converted)
[26] = read-out: averaged negative log10 GI50 (converted)

Q: For `C=C1CC2CCC34CC5OC6C(O3)C3OC(CCC3OC6(O)C5O4)CC(=O)OC3C(CC4OC(CCC1O2)CC(C)C4=C)OC1CC2OC4(CC2OC1C3C)CC1OC2(CC(C)C3OC5CC(C(O)CO)OC5CC3O2)CC(C)C1O4` (stereo not drawn) [halistatin 2], which “mitotic arrest / rise in mitotic index (in words)” value [1] is on record?
A: caused a significant rise in the mitotic index; also recorded: caused the accumulation of cells arrested in mitosis

Q: And the mitotic index [1]?
A: ≤ 20%

Q: What about the “inhibition of nucleotide exchange on tubulin (in words)” value [2] of the same molecule?
A: inhibit nucleotide exchange on tubulin

Q: And the “inhibition of radiolabeled GTP binding to tubulin (in words)” value [2]?
A: inhibited the binding of radiolabeled vinblastine and GTP to tubulin

Q: What about the “inhibition of radiolabeled GTP binding to tubulin” value ([2]; 5 μM) of the same molecule?
A: 17%

Q: What about the “inhibition of radiolabeled GTP binding to tubulin” value ([2]; 10 μM) of the same molecule?
A: 51%

Q: And the “inhibition of nucleotide exchange, comparison (in words)” value ([2]; 5 and 10 μM, comparator not given)?
A: superior as an inhibitor of nucleotide exchange

Q: What about the “cytotoxicity (in words)” value [3] of the same molecule?
A: significant cytotoxicity

Q: And the IC50 ([3]; Mus musculus)?
A: 0.4 nM

Q: What about the cure rate [4] of the same molecule?
A: 18%

Q: What about the “life extension of those not cured” value [4] of the same molecule?
A: 220%

Q: And the survival rate [4]?
A: 100%

Q: What about the GI50 ([5]; NCl-H226, non-small cell lung cancer, read-out: Log10 GI50 (converted)) of the same molecule?
A: 0.724 nM

Q: And the IC (TGI) ([5]; NCl-H226, non-small cell lung cancer, read-out: Log10 TGI (converted))?
A: 3.72 nM

Q: And the GI50 ([5]; non-small cell lung cancer, read-out: averaged negative log10 GI50 (converted))?
A: 0.724 nM

Q: And the GI50 [6, 24]?
A: 0.692 nM

Q: What about the IC (TGI) [6, 25] of the same molecule?
A: 7.59 nM

Q: And the GI50 [6, 26]?
A: 0.692 nM

Q: What about the GI50 [7, 24] of the same molecule?
A: 0.457 nM

Q: And the IC (TGI) [7, 25]?
A: 3.72 nM

Q: And the GI50 [7, 26]?
A: 0.457 nM

Q: And the GI50 [8, 24]?
A: 0.324 nM

Q: And the IC (TGI) [8, 25]?
A: 1.51 nM

Q: And the GI50 [8, 26]?
A: 0.324 nM

Q: What about the GI50 ([9]; KM 20L2, colon cancer, read-out: averaged negative log10 GI50 (converted)) of the same molecule?
A: 0.427 nM

Q: What about the GI50 ([9]; KM-20L2, printed KM2012, colon cancer, read-out: Log10 GI50 (converted)) of the same molecule?
A: 0.427 nM

Q: And the IC (TGI) ([9]; KM-20L2, printed KM2012, colon cancer, read-out: Log10 TGI (converted))?
A: 1.91 nM

Q: What about the GI50 [10, 24] of the same molecule?
A: 0.339 nM

Q: What about the IC (TGI) [10, 25] of the same molecule?
A: 10 nM

Q: And the GI50 [10, 26]?
A: 0.339 nM

Q: What about the GI50 [11, 24] of the same molecule?
A: 0.229 nM

Q: What about the IC (TGI) [11, 25] of the same molecule?
A: 2.57 nM

Q: What about the GI50 [11, 26] of the same molecule?
A: 0.229 nM

Q: And the GI50 ([12]; IGROV1, ovarian cancer, read-out: Log10 GI50 (converted))?
A: 0.891 nM

Q: What about the IC (TGI) ([12]; IGROV1, ovarian cancer, read-out: Log10 TGI (converted)) of the same molecule?
A: 10 nM

Q: And the GI50 ([12]; ovarian cancer, read-out: averaged negative log10 GI50 (converted))?
A: 0.891 nM

Q: What about the GI50 [13, 24] of the same molecule?
A: 0.229 nM

Q: What about the IC (TGI) [13, 25] of the same molecule?
A: 10 nM

Q: What about the GI50 [13, 26] of the same molecule?
A: 0.229 nM

Q: What about the GI50 [14, 24] of the same molecule?
A: 0.398 nM

Q: And the IC (TGI) [14, 25]?
A: 10 nM

Q: And the GI50 [14, 26]?
A: 0.398 nM

Q: And the GI50 [15, 24]?
A: 0.182 nM

Q: What about the IC (TGI) [15, 25] of the same molecule?
A: 1.82 nM

Q: And the GI50 [15, 26]?
A: 0.182 nM

Q: What about the GI50 [16, 24] of the same molecule?
A: 6.03 nM

Q: And the IC (TGI) [16, 25]?
A: 10 nM

Q: What about the GI50 [16, 26] of the same molecule?
A: 6.03 nM

Q: What about the GI50 [17, 24] of the same molecule?
A: 1.2 nM

Q: And the IC (TGI) [17, 25]?
A: 10 nM

Q: And the GI50 [17, 26]?
A: 1.2 nM

Q: What about the GI50 [18, 24] of the same molecule?
A: 0.676 nM

Q: What about the IC (TGI) [18, 25] of the same molecule?
A: 5.75 nM

Q: And the GI50 [18, 26]?
A: 0.676 nM

Q: And the GI50 [19, 24]?
A: 1.82 nM

Q: What about the IC (TGI) [19, 25] of the same molecule?
A: 10 nM

Q: What about the GI50 [19, 26] of the same molecule?
A: 1.82 nM

Q: What about the GI50 [20, 24] of the same molecule?
A: 1.29 nM

Q: And the IC (TGI) [20, 25]?
A: 5.25 nM

Q: And the GI50 [20, 26]?
A: 1.29 nM

Q: What about the “inhibition of radiolabeled vinblastine binding to tubulin (in words)” value [21] of the same molecule?
A: inhibited the binding of radiolabeled vinblastine and GTP to tubulin

Q: What about the “type of inhibition of vinblastine binding (in words)” value [21] of the same molecule?
A: noncompetitive inhibitor

Q: What about the “inhibition of radiolabeled vinblastine binding to tubulin” value ([21]; 5 μM) of the same molecule?
A: 51%

Q: What about the “inhibition of radiolabeled vinblastine binding to tubulin” value ([21]; 10 μM) of the same molecule?
A: 75%

Q: And the GI50 [22, 24]?
A: 3.02 nM

Q: And the IC (TGI) ([22]; read-out: Log10 TGI)?
A: 10 nM

Q: And the GI50 [22, 26]?
A: 3.02 nM

Q: What about the “inhibition of tubulin polymerization (in words)” value [23] of the same molecule?
A: inhibited tubulin polymerization

Q: What about the IC50 ([23]; purified tubulin) of the same molecule?
A: 4900 ± 500 nM
